According to patent US10668094B2, “Selective inhibitors of Alpha2-containing isoforms of Na,K-ATPase and use thereof for reduction of intraocular pressure” (Yeda Research and Development Co. Ltd., priority 2015, dated 2020):
Like-named read-outs stand apart in the source and are kept apart here.

Experiments:
[1] = biological target: human Na,K-ATPase α1β1FXYD1 (Homo sapiens (Human), UniProt P05023); type: biochemical
[2] = biological target: human Na,K-ATPase α2β1FXYD1 (Homo sapiens, UniProt P50993); type: biochemical
[3] = tested on: human Na,K-ATPase α2β1FXYD1; type: biochemical
[4] = biological target: human Na,K-ATPase α2β2FXYD1 (Homo sapiens (Human), UniProt P50993); type: biochemical
[5] = biological target: human Na,K-ATPase α2β3FXYD1 (Homo sapiens (Human), UniProt P50993+P54709); test: biochemical; type: biochemical
basal IOP in rabbits = test: Basal IOP in rabbits, topical administration; type: in vivo, rabbit

SMILES: CC1CN(C(C)C)CCC(O[C@@H]2[C@H](C)O[C@@H](O[C@@H]3[C@H](C)O[C@@H](O[C@H]4CC[C@@]5(C)C(CCC6C5C[C@H](O)[C@]5(C)[C@@H](C7=CC(=O)OC7)CC[C@]65O)C4)C[C@@H]3O)C[C@@H]2O)O1 (some centres unmarked) [DiP]
- Ki ([1]; read-out: Ki in nM ± SEM α1β1): 149 nM
- Ki ([2]; read-out: Ki in nM ± SEM α2β1): 28.9 ± 1.7 nM
- Selectivity Ki ratio α1β1/α2β1 [3]: 5.1
- Selectivity Ki ratio α1β1/α2β2 [4]: 8.9
- Ki ([4]; read-out: Ki in nM ± SEM α2β2): 16.7 ± 1.9 nM
- Selectivity Ki ratio α1β1/α2β3 [5]: 14.4
- Ki ([5]; read-out: Ki in nM ± SEM α2β3): 10.3 ± 1.8 nM

SMILES: CC1CN(CCS(C)(=O)=O)CCC(O[C@@H]2C(C)O[C@@H](OC3C(C)OC(O[C@H]4CC[C@@]5(C)C(CCC6C5CC(O)[C@]5(C)[C@@H](C7=CC(=O)OC7)CC[C@]65O)C4)C[C@@H]3O)C[C@@H]2O)O1 (stereo in doubt) [DESM, 4-((3S,5R,8R,9S,10S,12R,13S,14S,17R)-12,14-dihydroxy-3-(((2S,4S,5R,6R)-4-hydroxy-5-(((2S,4S,5S,6R)-4-hydroxy-6-methyl-5-((2-methyl-4-(2-(methylsulfonyl)ethyl)-1,4-oxazepan-7-yl)oxy)tetrahydro-2H-pyran-2-yl)oxy)-6-methyltetrahydro-2H-pyran-2-yl)oxy)-10,13-dimethylhexadecahydro-1H-cyclopenta[a]phenanthren-17-yl)furan-2(5H)-one]
- Ki ([1]; read-out: Ki in nM ± SEM α1β1): 464 ± 14 nM
- Ki ([2]; read-out: Ki in nM ± SEM α2β1): 49.2 ± 1.9 nM
- Selectivity Ki ratio α1β1/α2β1 [3]: 9.4
- Selectivity Ki ratio α1β1/α2β2 [4]: 14.6
- Ki ([4]; read-out: Ki in nM ± SEM α2β2): 31.7 ± 3.2 nM
- Selectivity Ki ratio α1β1/α2β3 [5]: 18.8
- Ki ([5]; read-out: Ki in nM ± SEM α2β3): 24.7 ± 2.1 nM

SMILES: CC1CN(CC(F)(F)F)CCC(O[C@@H]2[C@H](C)O[C@@H](O[C@@H]3[C@H](C)O[C@@H](O[C@H]4CC[C@@]5(C)C(CCC6C5C[C@H](O)[C@]5(C)[C@@H](C7=CC(=O)OC7)CC[C@]65O)C4)C[C@@H]3O)C[C@@H]2O)O1 (some centres unmarked) [DCF3]
- Ki ([1]; read-out: Ki in nM ± SEM α1β1): 119 nM
- Ki ([2]; read-out: Ki in nM ± SEM α2β1): 28.6 ± 0.9 nM
- Selectivity Ki ratio α1β1/α2β1 [3]: 4.1
- Selectivity Ki ratio α1β1/α2β2 [4]: 6.5
- Ki ([4]; read-out: Ki in nM ± SEM α2β2): 18.1 ± 1.9 nM
- Selectivity Ki ratio α1β1/α2β3 [5]: 9.6
- Ki ([5]; read-out: Ki in nM ± SEM α2β3): 12.4 ± 1.5 nM

SMILES: CCN1CCC(O[C@@H]2[C@H](C)O[C@@H](O[C@@H]3[C@H](C)O[C@@H](O[C@H]4CC[C@@]5(C)C(CCC6C5C[C@H](O)[C@]5(C)[C@@H](C7=CC(=O)OC7)CC[C@]65O)C4)C[C@@H]3O)C[C@@H]2O)OC(C)C1 (some centres unmarked) [DEt]
- Ki ([1]; read-out: Ki in nM ± SEM α1β1): 138 ± 12.6 nM
- Ki ([2]; read-out: Ki in nM ± SEM α2β1): 23.2 ± 0.9 nM
- Selectivity Ki ratio α1β1/α2β1 [3]: 5.9
- Selectivity Ki ratio α1β1/α2β2 [4]: 8.3
- Ki ([4]; read-out: Ki in nM ± SEM α2β2): 16.4 ± 1.6 nM
- Selectivity Ki ratio α1β1/α2β3 [5]: 9.5
- Ki ([5]; read-out: Ki in nM ± SEM α2β3): 14.4 ± 1.27 nM

SMILES: CC1CN(C2CCCC2)CCC(O[C@@H]2C(C)O[C@@H](OC3C(C)OC(O[C@H]4CC[C@@]5(C)C(CCC6C5CC(O)[C@]5(C)[C@@H](C7=CC(=O)OC7)CC[C@]65O)C4)C[C@@H]3O)C[C@@H]2O)O1 (stereo in doubt) [DcPe, 4-((3S,5R,8R,9S,10S,12R,13S,14S,17R)-3-(((2S,4S,5R,6R)-5-(((2S,4S,5S,6R)-5-((4-cyclopentyl-2-methyl-1,4-oxazepan-7-yl)oxy)-4-hydroxy-6-methyltetrahydro-2H-pyran-2-yl)oxy)-4-hydroxy-6-methyltetrahydro-2H-pyran-2-yl)oxy)-12,14-dihydroxy-10,13-dimethylhexadecahydro-1H-cyclopenta[a]phenanthren-17-yl)furan-2(5H)-one]
- Ki ([1]; read-out: Ki in nM ± SEM α1β1): 138 ± 21 nM
- Ki ([2]; read-out: Ki in nM ± SEM α2β1): 33.4 ± 7.5 nM
- Selectivity Ki ratio α1β1/α2β1 [3]: 4.1
- Selectivity Ki ratio α1β1/α2β2 [4]: 4.1
- Ki ([4]; read-out: Ki in nM ± SEM α2β2): 33.5 ± 11.9 nM
- Selectivity Ki ratio α1β1/α2β3 [5]: 5
- selectivity for α2β3 over α1β1 (Ki α1β1:α2β3 ratio) [5]: 10-12 fold
- Ki ([5]; read-out: Ki in nM ± SEM α2β3): 27.6 ± 9.5 nM

SMILES: CC1CN(CCC2CC2)CCC(O[C@@H]2[C@H](C)O[C@@H](O[C@@H]3[C@H](C)O[C@@H](O[C@H]4CC[C@@]5(C)C(CCC6C5C[C@H](O)[C@]5(C)[C@@H](C7=CC(=O)OC7)CC[C@]65O)C4)C[C@@H]3O)C[C@@H]2O)O1 (some centres unmarked) [DEcP]
- Ki ([1]; read-out: Ki in nM ± SEM α1β1): 86.1 ± 7 nM
- Ki ([2]; read-out: Ki in nM ± SEM α2β1): 14.3 ± 2 nM
- Selectivity Ki ratio α1β1/α2β1 [3]: 6.02
- Selectivity Ki ratio α1β1/α2β2 [4]: 7.1
- Ki ([4]; read-out: Ki in nM ± SEM α2β2): 12.1 ± 1.9 nM
- Selectivity Ki ratio α1β1/α2β3 [5]: 12.02
- selectivity for α2β3 over α1β1 (Ki α1β1:α2β3 ratio) [5]: 10-12 fold
- Ki ([5]; read-out: Ki in nM ± SEM α2β3): 7.2 ± 1 nM

SMILES: CC1CN(CC2CC(C)(C)C2)CCC(O[C@@H]2[C@H](C)O[C@@H](O[C@@H]3[C@H](C)O[C@@H](O[C@H]4CC[C@@]5(C)C(CCC6C5C[C@H](O)[C@]5(C)[C@@H](C7=CC(=O)OC7)CC[C@]65O)C4)C[C@@H]3O)C[C@@H]2O)O1 (stereo partly drawn) [DMDMcB, 4-((3S,5R,8R,9S10S,12R,13S,14S,17R)-3-(((2S,4S,5R,6R)-5-(((2S,4S,5S,6R)-5-((4-((3,3-dimethylcyclobutyl)methyl)-2-methyl-1,4-oxazepan-7-yl)oxy)-4-hydroxy-6-methyltetrahydro-2H-pyran-2-yl)oxy)-4-hydroxy-6-methyltetrahydro-2H-pyran-2-yl)oxy)-12,14-dihydroxy-10,13-dimethylhexadecahydro-1H-cyclopenta[a]phenanthren-17-yl)furan-2(5H)-one]
- Ki ([1]; read-out: Ki in nM ± SEM α1β1): 31.6 ± 0.5 nM
- Ki ([2]; read-out: Ki in nM ± SEM α2β1): 8.6 ± 1.4 nM
- Selectivity Ki ratio α1β1/α2β1 [3]: 3.69
- Selectivity Ki ratio α1β1/α2β2 [4]: 6.16
- Ki ([4]; read-out: Ki in nM ± SEM α2β2): 5.1 ± 0.5 nM
- Selectivity Ki ratio α1β1/α2β3 [5]: 8.19
- selectivity for α2β3 over α1β1 (Ki α1β1:α2β3 ratio) [5]: 10-12 fold
- Ki ([5]; read-out: Ki in nM ± SEM α2β3): 3.9 ± 0.7 nM

SMILES: CC(=O)O[C@H]1C[C@H](O[C@H]2[C@@H](OC(C)=O)C[C@H](O[C@H]3CC[C@@]4(C)[C@H](CC[C@@H]5[C@@H]4C[C@@H](OC(C)=O)[C@]4(C)[C@@H](C6=CC(=O)OC6)CC[C@]54O)C3)O[C@@H]2C)O[C@H](C)[C@H]1OC1CCN(C2CCC2)CC(C)O1 (stereo partly drawn) [TrisAcDcB, (2R,3R,4S,6R)-6-(((3S,5R,8R,9S,10S,12R,13S,14S,17R)-12-acetoxy-14-hydroxy-10,13-dimethyl-17-(5-oxo-2,5-dihydrofuran-3-yl)hexadecahydro-1H-cyclopenta[a]phenanthren-3-yl)oxy)-3-(((2S,4S,5R,6R)-4-acetoxy-5-((4-cyclobutyl-2-methyl-1,4-oxazepam-7-yl)oxy)-6-methyltetrahydro-2H-pyran-2-yl)oxy)-2-methyltetrahydro-2H-pyran-4-yl acetate]
- Ki of α1β1 higher than that of DcB [1]: ~100 fold
- Ki ([1]; read-out: Ki of α1β1FXYD1): 13200 ± 6500 nM
- Ki of α2β1 higher than that of DcB [2]: ~300 fold
- Ki ([2]; read-out: Ki of α2β1FXYD1): 2500 ± 490 nM
- time of return of IOP to the control level (basal IOP in rabbits; 0.05, 0.1, 0.2 mM): 12 h
- time to minimum IOP (basal IOP in rabbits; 0.05, 0.1, 0.2 mM): 5 to 6 h
- maximal effect on IOP compared with parent DcB (basal IOP in rabbits; 0.05-0.2 mM prodrug): essentially equal to that produced by the parent DcB
- minimum IOP (basal IOP in rabbits; from 15-16 mmHg, 0.05, 0.1, 0.2 mM): 12 mmHg
- onset of effect on basal IOP (basal IOP in rabbits; one 30 μl drop, 0.05, 0.1, 0.2 mM): no effect was observed at the first four hours

SMILES: [O]=[V]([OH])([OH])[OH] [Vanadate, vanadate, reference compound]
- Ki ([1]; read-out: apparent vanadate affinity α1β1): 480 nM
- Ki ([2]; Example 2, vanadate titration, read-out: apparent vanadate affinity α2β1): 3500 nM
- Ki ([4]; read-out: apparent vanadate affinity α2β2): 34000 nM
- Ki ([5]; read-out: apparent vanadate affinity α2β3): 1900 nM

SMILES: CC(C)OC(=O)CCC/C=C\C[C@@H]1[C@@H](CC[C@@H](O)CCc2ccccc2)[C@H](O)C[C@@H]1O [Latanoprost, reference compound]
- time after which IOP returned to the control value (basal IOP in rabbits; 1 mM DcB, 0.005% Latanoprost): 12 h
- steady-state IOP as % of the unchanged control values (basal IOP in rabbits; after 3-8 hours): 85%
- steady-state IOP lower than basal IOP (basal IOP in rabbits; after 3-8 hours, basal IOP 17-18 mmHg, 1 mM DcB, 0.005% Latanoprost): 2.6±0.11 mmHg
